Data reported in ChEMBL document CHEMBL1141900, “Synthesis and antibacterial activity of C2-fluoro, C6-carbamate ketolides, and their C9-oximes” (2005).

What was measured:
Mus musculus [1] = experiment: Effective dose required to inhibit Staphylococcus aureus in mouse was determined after peroral administration of the compound; (8.1- 14); format: functional; conditions: po
Mus musculus [2] = experiment: Effective dose required to inhibit Staphylococcus aureus in mouse was determined after sub cutaneous administration (0.5-1.4); format: functional

Compound: CC[C@H]1OC(=O)C(C)C(=O)[C@H](C)[C@@H](O[C@@H]2O[C@H](C)C[C@H](N(C)C)[C@H]2O)[C@](C)(OC(=O)NC/C=C/c2ccc(-c3ncccn3)cc2)C[C@@H](C)C(=O)[C@H](C)[C@H]2NC(=O)O[C@@]21C (some centres not stated)
- ED50 (Mus musculus [1]): 10 mg/kg
- ED50 (Mus musculus [2]): 1 mg/kg
